Ki data for 35 molecules are collected here from patent publication US7598245B2 (Vertex Pharmaceuticals Incorporated, priority 2003, dated 2009).

In one experiment the target is T1, human Src kinase (Homo sapiens, UniProt P12931).
T1 construct: 25 nM of recombinant human Src kinase
The experiment can be described thus: Src inhibition assay B: spectrophotometric (uv-vis) coupled enzyme assay. It is filed as biochemical. The following applies: 100 μM ATP. As to the method: The compounds are evaluated as inhibitors of human Src kinase using either a radioactivity-based assay or spectrophotometric assay.
Src Inhibition Assay B: Spectrophotometric Assay
The ADP produced from ATP by the human recombinant Src kinase-catalyzed phosphorylation of poly Glu-Tyr substrate is quantified using a coupled enzyme assay [Fox et al. Protein Sci. 1998, 7, 2249]. In this assay one molecule of NADH is oxidised to NAD for every molecule of ADP produced in the kinase reaction. The disappearance of NADH is conveniently followed at 340 nm.
The following are the final concentrations of the assay components: 0.025 M HEPES (pH 7.6), 10 mM MgCl2, 2 mM DTT, 0.25 mg/ml poly Glu-Tyr, and 25 nM of recombinant human Src kinase. Final concentrations of the components of the coupled enzyme system are 2.5 mM phosphoenolpyruvate, 200 μM NADH, 30 μg/ml pyruvate kinase and 10 μg/ml lactate dehydrogenase.
In a typical assay, all the reaction components with the exception of ATP are pre-mixed and aliquoted into assay plate wells. Inhibitors dissolved in DMSO are added to the wells to give a final DMSO concentration of 2.5%. The assay plate is incubated at 30° C. for 10 min before initiating the reaction with 100 μM ATP. The absorbance change at 340 nm with time, the rate of the reaction, is monitored on a molecular devices plate reader. The data of rate as a function of the inhibitor concentration is fitted to competitive inhibition kinetics model to get the Ki for the compound.

Another experiment addresses T2, FLT-3 (Homo sapiens, UniProt P36888).
T2 construct: 0.02% BSA and 3 nM FLT-3
T2 sequence (P36888 27-993): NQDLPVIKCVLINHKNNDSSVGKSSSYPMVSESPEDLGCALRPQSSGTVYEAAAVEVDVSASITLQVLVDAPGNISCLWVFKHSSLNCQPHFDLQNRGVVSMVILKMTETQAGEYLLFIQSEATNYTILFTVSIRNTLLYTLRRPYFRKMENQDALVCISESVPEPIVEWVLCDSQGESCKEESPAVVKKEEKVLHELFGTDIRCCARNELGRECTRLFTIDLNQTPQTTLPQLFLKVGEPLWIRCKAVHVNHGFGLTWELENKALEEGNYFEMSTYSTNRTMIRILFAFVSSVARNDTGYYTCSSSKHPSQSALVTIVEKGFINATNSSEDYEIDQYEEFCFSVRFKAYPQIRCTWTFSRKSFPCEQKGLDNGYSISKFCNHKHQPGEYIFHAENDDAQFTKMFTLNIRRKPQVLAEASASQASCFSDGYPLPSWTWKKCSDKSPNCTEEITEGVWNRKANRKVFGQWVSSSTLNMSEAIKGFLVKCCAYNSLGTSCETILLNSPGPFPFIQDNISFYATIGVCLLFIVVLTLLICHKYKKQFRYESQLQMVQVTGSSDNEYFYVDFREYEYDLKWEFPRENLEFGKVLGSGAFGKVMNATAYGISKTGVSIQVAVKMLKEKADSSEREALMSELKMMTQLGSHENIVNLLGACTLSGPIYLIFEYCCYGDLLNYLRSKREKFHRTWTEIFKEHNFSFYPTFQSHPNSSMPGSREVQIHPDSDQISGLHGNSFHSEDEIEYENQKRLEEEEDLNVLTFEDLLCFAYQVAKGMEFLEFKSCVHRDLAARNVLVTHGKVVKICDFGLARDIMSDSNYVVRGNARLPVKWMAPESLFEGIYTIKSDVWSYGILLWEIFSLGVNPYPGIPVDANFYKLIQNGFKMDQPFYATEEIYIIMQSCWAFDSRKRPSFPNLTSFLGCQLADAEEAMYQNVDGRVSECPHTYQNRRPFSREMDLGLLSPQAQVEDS
The experiment can be described thus: Inhibition of FLT-3, radiometric filter-binding assay. It counts as biochemical. The following applies: 90 μM ATP, pE4Y substrate. As to the method: Compounds were screened for their ability to inhibit FLT-3 activity using a radiometric filter-binding assay. This assay monitors the ^33P incorporation into a substrate poly(Glu, Tyr) 4:1 (pE4Y). Reactions were carried out in a solution containing 100 mM HEPES (pH 7.5), 10 mM MgCl2, 25 mM NaCl, 1 mM DTT, 0.01% BSA and 2.5% DMSO. Final substrate concentrations in the assay were 90 μM ATP and 0.5 mg/mL pE4Y (both from Sigma Chemicals, St Louis, Mo.). The final concentration of compounds is generally between 0.01 and 5 μM. Typically, a 12-point titration was conducted by preparing serial dilutions from 10 mM DMSO stock of test compound. Reactions were carried out at room temperature.
Two assay solutions were prepared. Solution 1 contains 100 mM HEPES (pH 7.5), 10 mM MgCl2, 25 mM NaCl, 1 mg/ml pE4Y and 180 μM ATP (containing 0.3 μCi of [γ-^33P]ATP for each reaction). Solution 2 contains 100 mM HEPES (pH 7.5), 10 mM MgCl2, 25 mM NaCl, 2 mM DTT, 0.02% BSA and 3 nM FLT-3. The assay was run on a 96 well plate by mixing 50 μL each of Solution1 and 2.5 mL of the test compounds. The reaction was initiated with Solution2. After incubation for 20 minutes at room temperature, the reaction was stopped with 50 μL of 20% TCA containing 0.4 mM of ATP. All of the reaction volume was then transferred to a filter plate and washed with 5% TCA by a Harvester9600 from TOMTEC (Hamden, Conn.). The amount of ^33P incorporation into pE4y was analyzed by a Packard TopCount Microplate Scintillation Counter (Meriden, Conn.). The data was fitted using Prism software to get an IC50 or Ki.

The mark [1] stands for this setting: given as IC50 or Ki, read-out: IC50 or Ki values (FLT-3).

Where two headings read alike, the source gives them in different places. A value given as a limit tells only on which side of the number the result lay.

T1 sequence (P12931 whole entry): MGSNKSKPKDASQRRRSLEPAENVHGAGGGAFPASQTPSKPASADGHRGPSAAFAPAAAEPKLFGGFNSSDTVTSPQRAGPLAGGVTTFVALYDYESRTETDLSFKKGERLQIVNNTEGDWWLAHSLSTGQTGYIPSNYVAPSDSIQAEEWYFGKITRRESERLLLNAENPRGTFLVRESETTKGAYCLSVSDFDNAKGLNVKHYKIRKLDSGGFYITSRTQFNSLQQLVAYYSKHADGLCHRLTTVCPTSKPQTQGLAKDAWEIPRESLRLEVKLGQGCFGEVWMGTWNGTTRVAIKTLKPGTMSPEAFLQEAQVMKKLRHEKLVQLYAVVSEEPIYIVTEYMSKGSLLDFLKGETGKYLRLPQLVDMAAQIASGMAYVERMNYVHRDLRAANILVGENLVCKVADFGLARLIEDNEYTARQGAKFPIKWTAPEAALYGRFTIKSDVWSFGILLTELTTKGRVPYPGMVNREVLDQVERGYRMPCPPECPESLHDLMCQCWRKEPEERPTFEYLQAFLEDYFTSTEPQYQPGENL

For the molecule `COc1cc(Nc2ncn(-c3ccccc3)n2)cc(OC)c1OC` [Compound I-42], the Ki on human Src kinase is under 500 nM; at FLT-3 (setting [1]) it was under 100 nM; on FLT-3 (read-out: Ki values (FLT-3)) it was 1 to 30 nM.
For `COc1cc(Nc2ncn(-c3ccc(C#N)cc3)n2)cc(OC)c1OC` [Compound I-43] the same measures were under 500 nM, under 100 nM and 1 to 30 nM.
As to `c1ccc(-n2cnc(Nc3ccc4c(c3)OCCO4)n2)cc1` [Compound I-44], the Ki on human Src kinase is 500 to 1000 nM; at FLT-3 (setting [1]), under 100 nM; on FLT-3 (read-out: Ki values (FLT-3)), 1 to 30 nM.
The corresponding values for `CCOc1cccc(Nc2ncn(-c3ccccc3)n2)c1` [Compound I-45] are under 500 nM, under 100 nM and 1 to 30 nM.
In the case of `CC(C)Oc1cccc(Nc2ncn(-c3ccccc3)n2)c1` [Compound I-46], the Ki on human Src kinase was over 1000 nM; at FLT-3 (setting [1]), under 100 nM; at FLT-3 (read-out: Ki values (FLT-3)), 1 to 30 nM.
For the molecule `CCOc1ccc(Nc2ncn(-c3ccccc3)n2)cc1` [Compound I-47], the figures for the Ki at human Src kinase, at FLT-3 (setting [1]) and at FLT-3 (read-out: Ki values (FLT-3)) were over 1000 nM, under 100 nM and 30 to 200 nM, respectively.
As for `c1ccc(Nc2ncn(-c3ccnc(N4CCCCC4)c3)n2)cc1` [Compound I-49, phenyl-[1-(3,4,5,6-tetrahydro-2H-[1,2′]bipyridinyl-4′-yl)-1H-[1,2,4]triazol-3-yl]-amine], the inhibition constant (Ki) at human Src kinase was under 500 nM; on FLT-3 (read-out: Ki values (FLT-3)), under 60 nM.
With `c1ccc(Nc2ncn(-c3ccnc(NC4CCCCC4)c3)n2)cc1` [Compound I-50], the Ki at human Src kinase is under 500 nM; at FLT-3 (read-out: Ki values (FLT-3)) it was 1 to 30 nM.
Regarding `CN(CCO)c1cc(-n2cnc(Nc3ccccc3)n2)ccn1` [Compound I-51], the Ki at human Src kinase was over 1000 nM; at FLT-3 (read-out: Ki values (FLT-3)), under 60 nM.
At human Src kinase, `c1ccc(Nc2ncn(-c3ccnc(N4CCCCCCC4)c3)n2)cc1` [Compound I-52] registered an inhibitory constant (Ki) of under 500 nM.
Same read-out and setting: the figure for `CN(C)CCCN(C)c1cc(-n2cnc(Nc3ccccc3)n2)ccn1` [Compound I-53] is over 1000 nM; for `CCN(CCO)c1cc(-n2cnc(Nc3ccccc3)n2)ccn1` [Compound I-54] it is under 500 nM.
For the molecule `CN(Cc1ccccc1)c1cc(-n2cnc(Nc3ccccc3)n2)ccn1` [Compound I-55], the Ki at human Src kinase lay in the range of 500 to 1000 nM; on FLT-3 (read-out: Ki values (FLT-3)), 1 to 30 nM.
`CC1CCCN1c1cc(-n2cnc(Nc3ccccc3)n2)ccn1` (stereo not drawn) [Compound I-56]: the Ki at human Src kinase lay in the range of 500 to 1000 nM; at FLT-3 (read-out: Ki values (FLT-3)), 1 to 30 nM.
For `CN(Cc1cccnc1)c1cc(-n2cnc(Nc3ccccc3)n2)ccn1` [Compound I-57] the same measures were 500 to 1000 nM and 1 to 30 nM.
Take `CCCN(CCO)c1cc(-n2cnc(Nc3ccccc3)n2)ccn1` [Compound I-58]: the values for the Ki on human Src kinase and at FLT-3 (read-out: Ki values (FLT-3)) were under 500 nM and 1 to 30 nM, respectively.
For `COCCN(C)c1cc(-n2cnc(Nc3ccccc3)n2)ccn1` [Compound I-59, (2-methoxy-ethyl)-methyl-[4-(3-phenylamino-[1,2,4]triazol-1-yl)-pyridin-2-yl]-amine] the same measures were over 1000 nM and 1 to 30 nM.
As for `CCN(CC)CCNc1cc(-n2cnc(Nc3ccccc3)n2)ccn1` [Compound I-60], the inhibition constant (Ki) at human Src kinase is over 1000 nM; at FLT-3 (read-out: Ki values (FLT-3)) it was 30 to 200 nM.
At human Src kinase, `CN1C(C)(C)CC(Nc2cc(-n3cnc(Nc4ccccc4)n3)ccn2)CC1(C)C` [Compound I-61] came in with a Ki of under 500 nM.
As for `CC(C)CCN(C)c1cc(-n2cnc(Nc3ccccc3)n2)ccn1` [Compound I-62, methyl-(3-methyl-butyl)-[4-(3-phenylamino-[1,2,4]triazol-1-yl)-pyridin-2-yl]-amine], the Ki at human Src kinase was 500 to 1000 nM; at FLT-3 (read-out: Ki values (FLT-3)), 1 to 30 nM.
For `O=c1[nH]c2ccccc2n1C1CCN(c2cc(-n3cnc(Nc4ccccc4)n3)ccn2)CC1` [Compound I-63], the figures for the inhibition constant Ki on human Src kinase and at FLT-3 (read-out: Ki values (FLT-3)) were over 1000 nM and over 200 nM, respectively.
For `O=C(C1CCCO1)N1CCN(c2cc(-n3cnc(Nc4ccccc4)n3)ccn2)CC1` (stereo not drawn) [Compound I-64], the Ki was over 1000 nM on human Src kinase and over 200 nM at FLT-3 (read-out: Ki values (FLT-3)).
`OC[C@H]1CCCN(c2cc(-n3cnc(Nc4ccccc4)n3)ccn2)C1` [Compound I-65] showed a Ki on human Src kinase of under 500 nM.
With `CC(=O)N1CCCN(c2cc(-n3cnc(Nc4ccccc4)n3)ccn2)CC1` [Compound I-66], the Ki at human Src kinase is over 1000 nM; on FLT-3 (read-out: Ki values (FLT-3)), under 60 nM.
For `CCC(=O)N1CCCN(c2cc(-n3cnc(Nc4ccccc4)n3)ccn2)CC1` [Compound I-67] the same measures were over 1000 nM and 30 to 200 nM.
Consider `CCCC(=O)N1CCCN(c2cc(-n3cnc(Nc4ccccc4)n3)ccn2)CC1` [Compound I-68], for which the Ki at human Src kinase is over 1000 nM; at FLT-3 (read-out: Ki values (FLT-3)), 30 to 200 nM.
The corresponding values for `CC(C)C(=O)N1CCCN(c2cc(-n3cnc(Nc4ccccc4)n3)ccn2)CC1` [Compound I-69] are over 1000 nM and 30 to 200 nM.
Turning to `CC(C)CC(=O)N1CCCN(c2cc(-n3cnc(Nc4ccccc4)n3)ccn2)CC1` [Compound I-70], on human Src kinase, the Ki was over 1000 nM.
Consider `COCC(=O)N1CCCN(c2cc(-n3cnc(Nc4ccccc4)n3)ccn2)CC1` [Compound I-71], for which the Ki on human Src kinase is over 1000 nM; at FLT-3 (read-out: Ki values (FLT-3)), 30 to 200 nM.
For `N#CCC(=O)N1CCCN(c2cc(-n3cnc(Nc4ccccc4)n3)ccn2)CC1` [Compound I-72] the same measures were 500 to 1000 nM and under 60 nM.
As for `c1ccc(Nc2ncn(-c3ccnc(N4CCCCCC4)c3)n2)cc1` [Compound I-73], the Ki was under 500 nM on human Src kinase and under 60 nM at FLT-3 (read-out: Ki values (FLT-3)).
With `CC(=O)N1[C@H](C)CN(c2cc(-n3cnc(Nc4ccccc4)n3)ccn2)C[C@@H]1C` [Compound I-74], the Ki at human Src kinase is under 500 nM; at FLT-3 (read-out: Ki values (FLT-3)) it was under 60 nM.
Consider `CCOC(=O)c1ccc(Nc2ncn(-c3ccnc(N4C[C@@H](C)N(C(C)=O)[C@@H](C)C4)c3)n2)cc1` [Compound I-75], for which the Ki is under 500 nM at human Src kinase and 30 to 200 nM on FLT-3 (read-out: Ki values (FLT-3)).
For `CCOC(=O)c1ccc(Nc2ncn(-c3ccnc(N4CCCN(C(C)=O)CC4)c3)n2)cc1` [Compound I-76] the same measures were over 1000 nM and 30 to 200 nM.
For the molecule `O=C(Nc1cc(-n2cnc(Nc3ccccc3)n2)ccn1)C1CCCCC1` [Compound I-93], the Ki on human Src kinase lay in the range of 500 to 1000 nM.

The term Ki denotes a dissociation constant, usually derived from enzyme kinetics or from competition with a known ligand.
